This passage reports Concentration that doubles (EC2X) or quintuples (EC5X) the AMPA-induced current results from US20050014744A1, “Benzothiazine and benzothiadiazine compounds” (priority 2001, published 2005).

Like-named read-outs stand apart in the source and are kept apart here.

In this assay the test system is AMPA receptors. The assay can be described thus: Excitatory fluxes induced by AMPA in Xenopus oocytes (2-electrode voltage-clamp). In kind it is cell-based. The note with it: Xenopus oocytes injected with rat cerebral cortex poly-(A+) mRNA, AMPA 10 μM, 20 to 24° C., OR2 medium. The procedure: Study of the Excitatory Fluxes Induced By AMPA in Xenopus oocytes
mRNAs are prepared from cerebral cortex of male Wistar rat by the guanidinium thiocyanate/phenol/chloroform method. The poly-(A^+) mRNAs are isolated by chromatography on oligo-dT cellulose and injected in an amount of 50 ng per oocyte. The oocytes are left to incubate for 2 to 3 days at 18° C. to allow expression of the receptors and are then stored at from 8 to 10° C.
Electrophysiological recording is carried out in a Plexiglass® chamber at from 20 to 24° C. in OR2 medium (J. Exp. Zool., 1973, 184, 321-334) by the 2-electrode “voltage-clamp” method, a 3rd electrode being placed in the bath to serve as reference.
All the compounds are administered via the incubation medium and the electric current is measured at the end of the period of administration. AMPA is used at a concentration of 10 μM. For each compound studied, the concentration that doubles (EC2X) or quintuples (EC5X) the intensity of the current induced by AMPA alone (5 to 50 nA) is determined.

As to `O=C(Oc1ccc2c(c1)S(=O)(=O)NCC2)c1ccccc1` [Example 2, 1,1-Dioxido-3,4-dihydro-2H-1,2-benzothiazin-7-yl Benzoate], the Concentration that doubles (EC2X) or quintuples (EC5X) the AMPA-induced current (read-out: EC2X (concentration that doubles the intensity of the current induced by AMPA alone)) was found to be 11.9 µM and the Concentration that doubles (EC2X) or quintuples (EC5X) the AMPA-induced current (read-out: EC5X (concentration that quintuples the intensity of the current induced by AMPA alone)) came to 49.3 µM.
